Reference: patent publication US20100331305A1, “OXO-HETEROCYCLE FUSED PYRIMIDINE COMPOUNDS, COMPOSITIONS AND METHODS OF USE” (Genentech, Inc., priority 2009, published 2010)
pEC50, pKi: −log10 of the molar value.

Assays:
[1] = tested on: AKT serine-473 phosphorylation in PC-3 cells; experiment: In vitro phospho-AKT serine 473 cellular assay; format: cell-based; settings: Homo sapiens; PC-3 cells stimulated with EGF; first nine specific compounds; read-out: EC50 activity level, inhibition of AKT serine-473 phosphorylation
Protocol: b. In Vitro Phospho-AKT Serine 473 Cellular Assay
The assay measures a test compound's inhibition of AKT serine-473 phosphorylation in human prostate adenocarcinoma derived PC-3 (ATCC CRL-1435) cells that have been stimulated with epidermal growth factor (EGF).
The PC-3 cell line is maintained in RPMI1640 media supplemented with 10% FBS, 2 mM Glutamine, and 10 mM HEPES pH 7.4 at 37° C. in a 5% CO2 humidified incubator.
Cells are seeded in 384-well plates at 7,000 cells/well in 50 μl growth media. After 24 hours, growth media is removed and replaced with RPMI1640 containing no FBS. Cells are treated with 10 concentrations of test compounds or DMSO alone for controls (final DMSO concentration 0.5%) and incubated at 37° C. for 30 minutes. Cells are then stimulated for 10 minutes with 100 ng/ml EGF (final concentration). One column of controls is not stimulated with EGF to observe the signal ratio between stimulated and non-stimulated cells. After 10 minutes, compounds and stimulation media are removed and replaced with 25 μl lysis buffer containing protease inhibitors and phosphatase inhibitors. This buffer contains detergent to bring about cellular disruption. […] Following the transfer of lysate to the MSD plate, AKT in the lysate is captured on the coated antibody by incubation on a shaker at 4° C. for 16 hours. Following the capture step the plate is washed and then incubated for two hours with an antibody to S473 phosphorylated AKT which is conjugated with a Sulfo-Tag. This tag gives a signal when in proximity to the electrode on the base of the MSD plate. Binding the tagged antibody to the captured protein allow detection on a MSD reader.
EC50 values are calculated using MDL Assay Explorer 3.0.1.8 fitting a sigmoidal curve with a variable slope.

[2] = tested on: PC3 cells; experiment: In vitro cell proliferation assay; format: cell-based, human; settings: Homo sapiens, PC-3, with PC3 cells; values tied to compounds by order of Table 1
In short: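 PC3 (or MDAMB361.1) cells, ~10^3/well, settled overnight, then exposed to compound for 3 days; viability read by CellTiter-Glo luminescence (RLU). Alternatively, 4-day compound exposure followed by Alamar Blue for 6 h, fluorescence 544/590 nm; EC50 from sigmoidal dose-response fit.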

[3] = molecular target: mTOR enzyme (mTOR(1360-2549)+GBL) (Homo sapiens, UniProt P42345); experiment: In vitro mTOR kinase assay (TR-FRET); format: biochemical; settings: 0.25 nM mTOR+GBL, 8 uM ATP; values tied to compounds by order of Table 1; 'x or y' = two alternative values for separated diastereomers of unassigned stereochemistry; read-out: activity level (Ki) in the mTOR kinase assay
In short: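 Compounds were tested in 10-point dose curves from 10 uM top final concentration. The reaction was stopped with 2 nM Tb-anti-p4E-BP1 (T37/T46) antibody plus 10 mM EDTA for 30 minutes, and phospho-4E-BP1 was detected by TR-FRET. Ki apparent was fitted with the Morrison ATP-competitive tight-binding equation.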

Chain of mTOR enzyme (mTOR(1360-2549)+GBL) (P42345 1360-2549, species assumed): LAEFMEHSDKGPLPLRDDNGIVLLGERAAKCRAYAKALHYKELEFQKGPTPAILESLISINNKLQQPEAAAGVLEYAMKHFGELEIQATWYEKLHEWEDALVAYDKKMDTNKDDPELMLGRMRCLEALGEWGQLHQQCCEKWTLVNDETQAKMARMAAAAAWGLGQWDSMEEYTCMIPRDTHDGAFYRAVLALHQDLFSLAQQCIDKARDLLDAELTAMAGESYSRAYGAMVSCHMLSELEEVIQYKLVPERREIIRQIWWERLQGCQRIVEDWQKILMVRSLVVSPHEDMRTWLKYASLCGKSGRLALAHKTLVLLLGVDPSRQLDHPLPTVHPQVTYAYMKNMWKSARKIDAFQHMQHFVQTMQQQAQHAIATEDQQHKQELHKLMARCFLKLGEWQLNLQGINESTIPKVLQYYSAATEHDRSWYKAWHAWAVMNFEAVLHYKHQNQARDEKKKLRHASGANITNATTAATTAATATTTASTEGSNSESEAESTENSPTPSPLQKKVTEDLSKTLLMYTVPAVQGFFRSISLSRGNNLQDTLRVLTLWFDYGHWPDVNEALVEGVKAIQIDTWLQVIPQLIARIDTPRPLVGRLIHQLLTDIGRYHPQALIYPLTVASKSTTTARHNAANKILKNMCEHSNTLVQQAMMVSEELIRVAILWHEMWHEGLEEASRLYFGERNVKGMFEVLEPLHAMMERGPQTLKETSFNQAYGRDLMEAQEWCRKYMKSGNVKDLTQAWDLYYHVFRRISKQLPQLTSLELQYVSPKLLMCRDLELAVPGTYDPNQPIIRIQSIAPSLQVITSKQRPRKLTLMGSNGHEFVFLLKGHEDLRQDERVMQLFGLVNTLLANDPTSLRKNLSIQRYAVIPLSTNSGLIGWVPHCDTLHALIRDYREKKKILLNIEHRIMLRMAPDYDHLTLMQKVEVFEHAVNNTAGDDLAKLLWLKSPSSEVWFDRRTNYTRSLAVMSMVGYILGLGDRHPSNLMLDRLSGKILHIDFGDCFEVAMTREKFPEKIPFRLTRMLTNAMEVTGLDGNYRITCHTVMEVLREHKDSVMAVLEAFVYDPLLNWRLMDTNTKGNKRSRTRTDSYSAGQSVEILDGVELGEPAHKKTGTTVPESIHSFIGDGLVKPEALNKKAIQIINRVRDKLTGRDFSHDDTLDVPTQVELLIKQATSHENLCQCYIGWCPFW
Chain of mTOR enzyme (mTOR(1360-2549)+GBL) (Q9BVC4 whole entry partner, species assumed): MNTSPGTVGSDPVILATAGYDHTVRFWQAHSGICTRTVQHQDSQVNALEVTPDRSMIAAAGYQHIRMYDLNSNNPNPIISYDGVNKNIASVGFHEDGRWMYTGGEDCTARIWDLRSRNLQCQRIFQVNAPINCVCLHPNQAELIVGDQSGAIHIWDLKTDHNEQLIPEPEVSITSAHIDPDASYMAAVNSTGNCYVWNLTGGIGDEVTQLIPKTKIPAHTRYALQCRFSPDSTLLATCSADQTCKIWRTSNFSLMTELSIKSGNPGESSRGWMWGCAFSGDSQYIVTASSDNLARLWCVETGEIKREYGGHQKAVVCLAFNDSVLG

| Compound | pEC50 [1] | pEC50 [2] | pKi [3] |
| --- | --- | --- | --- |
| CCNC(=O)Nc1ccc(-c2nc3c(c(N4CCOCC4)n2)CCCO3)cc1 [Example 15, 1-ethyl-3-(4-(4-morpholino-6,7-dihydro-5H-pyrano[2,3-d]pyrimidin-2-yl)phenyl)urea] | 7.07 | 6.71 | – |
| CCNC(=O)Nc1ccc(-c2nc3c(c(N4CCOC[C@@H]4C)n2)CCCO3)cc1 [Example 16, (S)-1-ethyl-3-(4-(4-(3-methylmorpholino)-6,7-dihydro-5H-pyrano[2,3-d]pyrimidin-2-yl)phenyl)urea] | 8.00 | 6.64 | 8.70 |
| CCNC(=O)Nc1ccc(-c2nc3c(c(N4CCOC[C@@H]4C)n2)COCC3)cc1 [Example 17, (S)-1-ethyl-3-(4-(4-(3-methylmorpholino)-7,8-dihydro-5H-pyrano[4,3-d]pyrimidin-2-yl)phenyl)urea] | 7.66 | 6.76 | 8.40 |
| CCNC(=O)Nc1ccc(-c2nc3c(c(N4CCOCC4)n2)COCC3)cc1 [Example 18, 1-ethyl-3-(4-(4-morpholino-7,8-dihydro-5H-pyrano[4,3-d]pyrimidin-2-yl)phenyl)urea] | 6.63 | – | – |
| CCNC(=O)Nc1ccc(-c2nc3c(c(N4CCOC[C@@H]4CC)n2)COCC3)cc1 [Example 19, (S)-1-ethyl-3-(4-(4-(3-ethylmorpholino)-7,8-dihydro-5H-pyrano[4,3-d]pyrimidin-2-yl)phenyl)urea] | 8.22 | 7.06 | 9.00 |
| C[C@H]1COCCN1c1nc(-c2ccc(NC(=O)Nc3ccon3)cc2)nc2c1COCC2 [Example 20, (S)-1-(isoxazol-3-yl)-3-(4-(4-(3-methylmorpholino)-7,8-dihydro-5H-pyrano[4,3-d]pyrimidin-2-yl)phenyl)urea] | 7.82 | 7.03 | 8.70 |
| C[C@H]1COCCN1c1nc(-c2ccc(NC(=O)Nc3ccn(C)n3)cc2)nc2c1COCC2 [Example 21, (S)-1-(1-methyl-1H-pyrazol-3-yl)-3-(4-(4-(3-methylmorpholino)-7,8-dihydro-5H-pyrano[4,3-d]pyrimidin-2-yl)phenyl)urea] | 6.97 | 6.72 | 8.52 |
| C[C@H]1COCCN1c1nc(-c2ccc(NC(=O)Nc3cnn(C)c3)cc2)nc2c1COCC2 [Example 22, (S)-1-(1-methyl-1H-pyrazol-4-yl)-3-(4-(4-(3-methylmorpholino)-7,8-dihydro-5H-pyrano[4,3-d]pyrimidin-2-yl)phenyl)urea] | 7.38 | 7.23 | 8.40 |
| C[C@H]1COCCN1c1nc(-c2ccc(NC(=O)NCC(F)(F)F)cc2)nc2c1COCC2 [Example 23, (S)-1-(4-(4-(3-methylmorpholino)-7,8-dihydro-5H-pyrano[4,3-d]pyrimidin-2-yl)phenyl)-3-(2,2,2-trifluoroethyl)urea] | 7.31 | 6.00 | 7.80 |
| Nc1ccc(-c2nc3c(c(N4[C@@H]5CC[C@H]4COC5)n2)CCCO3)cn1 [Example 132, 5-(4-((1R,5S)-3-oxa-8-azabicyclo[3.2.1]octan-8-yl)-6,7-dihydro-5H-pyrano[2,3-d]pyrimidin-2-yl)pyridin-2-amine] | – | 6.23 | 7.49 |
